From patent US7943770B2, “Fused quinoline derivative and use thereof” (Takeda Pharmaceutical Company Limited, priority 2004, dated 2011) come the findings set out here.

Each structure is given as a SMILES string.

The target in the test is T1, hNK2 receptor (Homo sapiens, UniProt P21452).
T1 construct: host or cells: CHO cells
T1 sequence (P21452 1-398): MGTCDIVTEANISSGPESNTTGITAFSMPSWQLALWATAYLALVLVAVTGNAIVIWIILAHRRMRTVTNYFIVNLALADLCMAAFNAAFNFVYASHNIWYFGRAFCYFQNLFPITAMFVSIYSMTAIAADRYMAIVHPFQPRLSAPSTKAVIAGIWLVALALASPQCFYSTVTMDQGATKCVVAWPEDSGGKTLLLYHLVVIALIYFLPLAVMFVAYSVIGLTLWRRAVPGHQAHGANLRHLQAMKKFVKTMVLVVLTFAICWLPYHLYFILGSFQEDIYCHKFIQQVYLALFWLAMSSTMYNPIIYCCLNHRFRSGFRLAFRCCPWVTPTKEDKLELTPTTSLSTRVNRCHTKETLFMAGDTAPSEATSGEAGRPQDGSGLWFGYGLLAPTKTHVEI
In words: Radio-ligand ([125I]-NKA) receptor binding inhibitory activity using membrane fraction of hNK2 receptor-expressing CHO cell. Conditions: membrane fraction of hNK2 receptor-expressing CHO cells, 25° C., 30 min. An outline of the steps:
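Membranes from hNK2-expressing CHO cells (20 μg/mL suspension) incubated with test compound and [125I]-NKA ([…] solution as added) in Tris-HCl pH 7.4 with BSA, protease inhibitors, 3 mM MnCl2, 25 °C, 30 min. Bound radioactivity by GF/C filtration and scintillation; inhibition expressed relative to specific binding (total minus unlabeled-NKA non-specific).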
Consider `O=C(/C=C/c1ccc(C(F)(F)F)cc1)N[C@@H]1CCCC[C@@H]1C(=O)N1CC[C@@H]2[C@H](c3ccccc3)Nc3ccccc3[C@@H]21` [Example 106, (2E)-N-((1R,2S)-2-{[(3aR,4R,9bR)-4-Phenyl-2,3,3a,4,5,9b-hexahydro-1H-pyrrolo[3,2-c]quinolin-1-yl]carbonyl}cyclohexyl)-3-[4-(trifluoromethyl)phenyl]acrylamide], for which the 50% inhibitory concentration (IC50) (as a rule, the concentration at which inhibition is half-maximal) was under 0.01 µM. The result for `O=C(N[C@@H]1CCCC[C@@H]1C(=O)N1CC[C@@H]2[C@H](c3ccccc3)Nc3ccccc3[C@@H]21)c1ccc2ccccc2c1` [Example 107, N-((1R,2S)-2-{[(3aR,4R,9bR)-4-Phenyl-2,3,3a,4,5,9b-hexahydro-1H-pyrrolo[3,2-c]quinolin-1-yl]carbonyl}cyclohexyl)-2-naphthamide] reads under 0.001 µM. The result for `CCOC(=O)CCC(=O)N[C@@H]1CCCC[C@@H]1C(=O)N1CC[C@@H]2[C@H](c3ccccc3)Nc3ccccc3[C@@H]21` [Example 108] reads under 0.01 µM. The value for `O=C(CCCCCBr)N[C@@H]1CCCC[C@@H]1C(=O)N1CC[C@@H]2[C@H](c3ccccc3)Nc3ccccc3[C@@H]21` [Example 109, 6-Bromo-N-((1R,2S)-2-{[(3aR,4R,9bR)-4-phenyl-2,3,3a,4,5,9b-hexahydro-1H-pyrrolo[3,2-c]quinolin-1-yl]carbonyl}cyclohexyl)hexanamide] was under 0.01 µM. As to `O=C(N[C@@H]1CCCC[C@@H]1C(=O)N1CC[C@@H]2[C@H](c3ccccc3)Nc3ccccc3[C@@H]21)c1ccc(Cl)cc1` [Example 114, 4-Chloro-N-((1R,2S)-2-{[(3aR,4R,9bR)-4-phenyl-2,3,3a,4,5,9b-hexahydro-1H-pyrrolo[3,2-c]quinolin-1-yl]carbonyl}cyclohexyl)benzamide], the IC50 was under 0.01 µM. Regarding `COC(=O)CCCCC(=O)N[C@@H]1CCCC[C@@H]1C(=O)N1CC[C@@H]2[C@H](c3ccccc3)Nc3ccccc3[C@@H]21` [Example 116, Methyl 6-oxo-6-[((1R,2S)-2-{[(3aR,4R,9bR)-4-phenyl-2,3,3a,4,5,9b-hexahydro-1H-pyrrolo[3,2-c]quinolin-1-yl]carbonyl}cyclohexyl)amino]hexanoate], the IC50 is under 0.01 µM. Regarding `O=C(CCCCCN1CCOCC1)N[C@@H]1CCCC[C@@H]1C(=O)N1CC[C@@H]2[C@H](c3ccccc3)Nc3ccccc3[C@@H]21` [Example 117, 6-Morpholin-4-yl-N-((1R,2S)-2-{[(3aR,4R,9bR)-4-phenyl-2,3,3a,4,5,9b-hexahydro-1H-pyrrolo[3,2-c]quinolin-1-yl]carbonyl}cyclohexyl)hexanamide], the 50% inhibitory concentration (IC50) was under 0.01 µM.

Regarding `O=C(CCCCCO)N[C@@H]1CCCC[C@@H]1C(=O)N1CC[C@@H]2[C@H](c3ccccc3)Nc3ccccc3[C@@H]21` [Example 119, 6-Hydroxy-N-((1R,2S)-2-{[(3aR,4R,9bR)-4-phenyl-2,3,3a,4,5,9b-hexahydro-1H-pyrrolo[3,2-c]quinolin-1-yl]carbonyl}cyclohexyl)hexanamide], the IC50 is under 0.01 µM. On to `O=C(N[C@@H]1CCCC[C@@H]1C(=O)N1CC[C@@H]2[C@H](c3ccccc3)Nc3ccccc3[C@@H]21)c1ccc(CO)cc1` [Example 120, 4-(Hydroxymethyl)-N-((1R,2S)-2-{[(3aR,4R,9bR)-4-phenyl-2,3,3a,4,5,9b-hexahydro-1H-pyrrolo[3,2-c]quinolin-1-yl]carbonyl}cyclohexyl)benzamide], for which the IC50 is under 0.01 µM. As to `O=C(N[C@@H]1CCCC[C@@H]1C(=O)N1CC[C@@H]2[C@H](c3ccccc3)Nc3ccccc3[C@@H]21)c1cnccn1` [Example 127, N-((1R,2S)-2-{[(3aR,4R,9bR)-4-Phenyl-2,3,3a,4,5,9b-hexahydro-1H-pyrrolo[3,2-c]quinolin-1-yl]carbonyl}cyclohexyl)pyrazine-2-carboxamide], the half-inhibitory concentration (IC50) is under 0.01 µM.

Turning to `O=C(/C=C/c1c[nH]cn1)N[C@@H]1CCCC[C@@H]1C(=O)N1CC[C@@H]2[C@H](c3ccccc3)Nc3ccccc3[C@@H]21` [Example 128, (2E)-3-(1H-Imidazol-4-yl)-N-((1R,2S)-2-{[(3aR,4R,9bR)-4-phenyl-2,3,3a,4,5,9b-hexahydro-1H-pyrrolo[3,2-c]quinolin-1-yl]carbonyl}cyclohexyl)acrylamide], the IC50 is under 0.01 µM. The value for `O=C(N[C@@H]1CCCC[C@@H]1C(=O)N1CC[C@@H]2[C@H](c3ccccc3)Nc3ccccc3[C@@H]21)c1ncc[nH]1` [Example 129, N-((1R,2S)-2-{[(3aR,4R,9bR)-4-Phenyl-2,3,3a,4,5,9b-hexahydro-1H-pyrrolo[3,2-c]quinolin-1-yl]carbonyl}cyclohexyl)-1H-imidazole-2-carboxamide] was under 0.01 µM; that for `Cn1ccnc1C(=O)N[C@@H]1CCCC[C@@H]1C(=O)N1CC[C@@H]2[C@H](c3ccccc3)Nc3ccccc3[C@@H]21` [Example 132, 1-Methyl-N-((1R,2S)-2-{[(3aR,4R,9bR)-4-phenyl-2,3,3a,4,5,9b-hexahydro-1H-pyrrolo[3,2-c]quinolin-1-yl]carbonyl}cyclohexyl)-1H-imidazole-2-carboxamide] was under 0.01 µM. The value for `O=C(N[C@@H]1CCCC[C@@H]1C(=O)N1CC[C@@H]2[C@H](c3ccccc3)Nc3ccccc3[C@@H]21)c1ccc2[nH]cnc2c1` [Example 133, N-((1R,2S)-2-{[(3aR,4R,9bR)-4-Phenyl-2,3,3a,4,5,9b-hexahydro-1H-pyrrolo[3,2-c]quinolin-1-yl]carbonyl}cyclohexyl)-1H-benzimidazole-5-carboxamide] was under 0.001 µM; that for `O=C(/C=C/c1ncc[nH]1)N[C@@H]1CCCC[C@@H]1C(=O)N1CC[C@@H]2[C@H](c3ccccc3)Nc3ccccc3[C@@H]21` [Example 134, (2E)-3-(1H-Imidazol-2-yl)-N-((1R,2S)-2-{[(3aR,4R,9bR)-4-phenyl-2,3,3a,4,5,9b-hexahydro-1H-pyrrolo[3,2-c]quinolin-1-yl]carbonyl}cyclohexyl)acrylamide] was under 0.001 µM. The value for `O=C(Nc1ccccc1)N[C@@H]1CCCC[C@@H]1C(=O)N1CC[C@@H]2[C@H](c3ccccc3)Nc3ccccc3[C@@H]21` [Example 135, N-phenyl-N′-((1R,2S)-2-{[(3aR,4R,9bR)-4-phenyl-2,3,3a,4,5,9b-hexahydro-1H-pyrrolo[3,2-c]quinolin-1-yl]carbonyl}cyclohexyl)urea] was under 0.001 µM; that for `O=C(Nc1ccc(Cl)cc1)N[C@@H]1CCCC[C@@H]1C(=O)N1CC[C@@H]2[C@H](c3ccccc3)Nc3ccccc3[C@@H]21` [Example 136, N-(4-Chlorophenyl)-N′-((1R,2S)-2-{[(3aR,4R,9bR)-4-phenyl-2,3,3a,4,5,9b-hexahydro-1H-pyrrolo[3,2-c]quinolin-1-yl]carbonyl}cyclohexyl)urea] was under 0.01 µM. `COc1ccc(NC(=O)N[C@@H]2CCCC[C@@H]2C(=O)N2CC[C@@H]3[C@H](c4ccccc4)Nc4ccccc4[C@@H]32)cc1` [Example 137, N-(4-Methoxyphenyl)-N′-((1R,2S)-2-{[(3aR,4R,9bR)-4-phenyl-2,3,3a,4,5,9b-hexahydro-1H-pyrrolo[3,2-c]quinolin-1-yl]carbonyl}cyclohexyl)urea] came in with a half-maximal inhibitory concentration (IC50) of under 0.001 µM. The value for `Cc1ccc(NC(=O)N[C@@H]2CCCC[C@@H]2C(=O)N2CC[C@@H]3[C@H](c4ccccc4)Nc4ccccc4[C@@H]32)cc1` [Example 138, N-(4-Methylphenyl)-N′-((1R,2S)-2-{[(3aR,4R,9bR)-4-phenyl-2,3,3a,4,5,9b-hexahydro-1H-pyrrolo[3,2-c]quinolin-1-yl]carbonyl}cyclohexyl)urea] was under 0.001 µM.
